Measured values taken from patent publication US4016159A, “Acylamino-cephem-carboxylic acids containing an amidino or guanidino group in the molecule” (Hoechst Aktiengesellschaft, priority 1973, dated 1977).
≈ marks a conversion by molar mass, not a printed value.

How the values were obtained:
Type in all cases: cell-based
[1] = tested on: Staphylococcus aureus 285; assay: Minimum inhibition concentration (MIC), Table 1; conditions: for MIC: Staphylococcus aureus, 285, Germ: Staphylococcus aureus 285, read-out: Minimum inhibition concentration (MIC)
Source text: (§1) Minimum inhibition concentration (MIC) in γ/ml
Germ: Staphylococcus aureus 285

[2] = tested on: Streptococcus pyogenes A; assay: Minimum inhibition concentration (MIC), Table 3; conditions: Germ: Streptococcus pyogenes A; read-out: Minimum inhibition concentration MIC
Source text: Minimum inhibition concentration MIC in γ/ml
Germ: Streptococcus pyogenes A

[3] = tested on: Streptococcus D; assay: Minimum inhibition concentration (MIC), Table 4; conditions: Streptococcus, Germ: Streptococcus D; read-out: Minimum inhibition concentration (MIC)
Source text: as §1

[4] = tested on: Staphylococcus aureus SG 511; assay: Minimum inhibition concentration (MIC), Table 5; conditions: Staphylococcus aureus, SG511, Germ: Staphylococcus aureus SG 511; read-out: Minimum inhibition concentration (MIC)
Source text: as §1
Germ: Staphylococcus aureus SG 511

SMILES	MIC [1] [µg/mL]	MIC [2] [µg/mL]	MIC [3] [µg/mL]	MIC [4] [µg/mL]	Minimum inhibition concentration (MIC) ([1]; Germ: Staphylococcus aureus 285) [µg/mL]
CCCc1nnc(SCC2=C(C(=O)O)N3C(=O)C(NC(=O)COc4ccc(C(=N)N)cc4)C3SC2)s1 (centres unmarked) [Example 68, 3-[(5-n-propyl-1,3,4-thiadiazole-2-yl)-thiomethyl]-7-(4-amidinophenoxyacetamido)-Δ 3-cephem-4-carboxylic acid]	0.5 to 1.25 (≈ 0.911 to 2.28 µM)	0.008 to 0.0156 (≈ 0.0146 to 0.0284 µM)	10 to 50 (≈ 18.2 to 91.1 µM)	0.0625 to 0.078 (≈ 0.114 to 0.142 µM)	–
N=C(N)c1ccc(CC(=O)NC2C(=O)N3C(C(=O)O)=C(CSc4nc5ccccc5s4)CSC23)cc1 (centres unmarked) [Example 92, 3-[benzothiazole-2-yl-thiomethyl]-7-[4-amidino-phenylacetamido]-Δ 3-cephem-4-carboxylic acid]	0.156 to 0.391 (≈ 0.289 to 0.725 µM)	0.000391 to 0.0078 (≈ 0.000725 to 0.0145 µM)	0.196 to 6.25 (≈ 0.363 to 11.6 µM)	0.0625 to 0.078 (≈ 0.116 to 0.145 µM)	–
CCc1nnc(SCC2=C(C(=O)O)N3C(=O)C(NC(=O)Cc4ccc(C(=N)N)cc4)C3SC2)s1 (centres unmarked) [Example 122, 3-[(5-ethyl-1,3,4-thiadiazole-2-yl)-thiomethyl]-7-(4-amidino-phenylacetamido)-Δ3-cephem-4-carboxylic acid]	0.5 to 1.25 (≈ 0.964 to 2.41 µM)	0.008 to 0.0156 (≈ 0.0154 to 0.0301 µM)	10 to 50 (≈ 19.3 to 96.4 µM)	0.0625 to 0.078 (≈ 0.121 to 0.15 µM)	–
O=C(COc1ccc(C2=NCCCN2)cc1)NC1C(=O)N2C(C(=O)O)=C(CSc3nnc(-c4ccccc4)s3)CSC12 (centres unmarked) [Example 50]	0.156 to 0.391 (≈ 0.251 to 0.628 µM)	0.000391 to 0.0078 (≈ 0.000628 to 0.0125 µM)	0.196 to 6.25 (≈ 0.315 to 10 µM)	0.0196 to 0.0391 (≈ 0.0315 to 0.0628 µM)	–
O=C(Cc1ccc(C2=NCCN2)cc1)NC1C(=O)N2C(C(=O)O)=C(CSc3nnc(-c4ccccc4)o3)CSC12 (centres unmarked) [Example 116, 3-[(5-phenyl-1,3,4-oxadiazole-2-yl)-thiomethyl]-7-[4-(imidazoline-2-yl)-phenylacetamido]-Δ3-cephem-4-carboxylic acid]	0.5 to 1.25 (≈ 0.867 to 2.17 µM)	0.000391 to 0.0078 (≈ 0.000678 to 0.0135 µM)	10 to 50 (≈ 17.3 to 86.7 µM)	0.0625 to 0.078 (≈ 0.108 to 0.135 µM)	–
N=C(N)c1ccc(OCC(=O)NC2C(=O)N3C(C(=O)O)=C(CSc4nncs4)CSC23)cc1 (centres unmarked) [Example 63, 3-[(1,3,4-thiadiazole-2-yl)-thiomethyl]-7-(4amidinophenoxyacetamido)-Δ 3-cephem-4-carboxylic acid]	0.156 to 0.391 (≈ 0.308 to 0.772 µM)	0.008 to 0.0156 (≈ 0.0158 to 0.0308 µM)	10 to 50 (≈ 19.7 to 98.7 µM)	0.0625 to 0.078 (≈ 0.123 to 0.154 µM)	–
N=C(N)c1ccc(CC(=O)NC2C(=O)N3C(C(=O)O)=C(CSc4nnc(-c5ccccc5)o4)CSC23)cc1 (centres unmarked) [Example 56, 3-[(5-phenyl-1,3,4-oxadiazole-2-yl)-thiomethyl]-7-(4-amidinophenylacetamido)-Δ 3-cephem-4-carboxylic acid]	0.156 to 0.391 (≈ 0.283 to 0.71 µM)	0.000391 to 0.0078 (≈ 0.00071 to 0.0142 µM)	10 to 50 (≈ 18.2 to 90.8 µM)	0.0196 to 0.0391 (≈ 0.0356 to 0.071 µM)	–
Cc1nsc(SCC2=C(C(=O)O)N3C(=O)C(NC(=O)Cc4ccc(C5=NCCCN5)cc4)C3SC2)n1 (centres unmarked) [Example 108, 3-[(3-methyl-1,2,4-thiadiazole-5-yl)-thiomethyl]-7-[4-(1,4,5,6-tetrahydropyrimide-22-yl)-phenylacetamido]-Δ3-cephem-4-carboxylic acid]	0.156 to 0.391 (≈ 0.286 to 0.718 µM)	0.000391 to 0.0078 (≈ 0.000718 to 0.0143 µM)	10 to 50 (≈ 18.4 to 91.8 µM)	0.0625 to 0.078 (≈ 0.115 to 0.143 µM)	–
N=C(N)c1ccc(OCC(=O)NC2C(=O)N3C(C(=O)O)=C(CSc4nnc(N)s4)CSC23)cc1 (centres unmarked) [Example 49, 3-[(5-amino-1,3,4-thiadiazole-2-yl)-thiomethyl]-7-(4-amidinophenoxyacetamido)-Δ 3-cephem-4-carboxylic acid]	0.5 to 1.25 (≈ 0.959 to 2.4 µM)	–	10 to 50 (≈ 19.2 to 95.9 µM)	0.0625 to 0.078 (≈ 0.12 to 0.15 µM)	–
O=C(Cc1ccc(C2=NCCCN2)cc1)NC1C(=O)N2C(C(=O)O)=C(CSc3nnc(-c4ccccc4)o3)CSC12 (centres unmarked) [Example 83, 3-[(5-phenyl-1,3,4-oxadiazole-2-yl)-thiomethyl]-7-[4-(1,4,5,6-tetrahydropyrimide-2-yl)-phenylacetamido]-Δ 3-cephem-4-carboxylic acid]	–	0.000391 to 0.0078 (≈ 0.000662 to 0.0132 µM)	10 to 50 (≈ 16.9 to 84.6 µM)	–	0.5 to 1.25
N=C(N)Nc1ccc(CC(=O)NC2C(=O)N3C(C(=O)O)=C(CSc4nccs4)CSC23)cc1 (centres unmarked) [Example 8]	0.5 to 1.25 (≈ 0.991 to 2.48 µM)	–	10 to 50 (≈ 19.8 to 99.1 µM)	0.0625 to 0.078 (≈ 0.124 to 0.155 µM)	–
Cc1csc(SCC2=C(C(=O)O)N3C(=O)C(NC(=O)Cc4ccc(C(=N)N)cc4)C3SC2)n1 (centres unmarked) [Example 5, 3-[(4-methyl-thioazole-2-yl)-thiomethyl]-7-(4-amidinophenyl-acetamido)-Δ3-cephem-4-carboxylic acid]	0.156 to 0.391 (≈ 0.31 to 0.776 µM)	–	10 to 50 (≈ 19.9 to 99.3 µM)	0.0625 to 0.078 (≈ 0.124 to 0.155 µM)	–
COc1cc(C(=N)N)ccc1OCC(=O)NC1C(=O)N2C(C(=O)O)=C(CSc3nnc(C)s3)CSC12 (centres unmarked) [Example 128, 3-[(5-methyl-1,3,4-thiadizole-2-yl)-thiomethyl]-7(4-amidino-2-methoxy-phenoxy-acetamido)-Δ3-cephem-4-carboxylic acid]	0.156 to 0.391 (≈ 0.283 to 0.71 µM)	0.008 to 0.0156 (≈ 0.0145 to 0.0283 µM)	–	0.0625 to 0.078 (≈ 0.114 to 0.142 µM)	–
